This is an account of results in patent publication US7157430B2, “(Substituted)acyl dipeptidyl inhibitors of the ICE/CED-3 family of cysteine proteases” (Idun Pharmaceuticals, Inc., priority 1998, dated 2007).

Holding throughout (type): biochemical
Common to all, as to details: continuous assay 60 min, reaction initiated by adding enzyme

For one test, the target named is T1, mICE (Mus musculus, UniProt P29452).
T1 sequence (P29452 123-296 limits assumed): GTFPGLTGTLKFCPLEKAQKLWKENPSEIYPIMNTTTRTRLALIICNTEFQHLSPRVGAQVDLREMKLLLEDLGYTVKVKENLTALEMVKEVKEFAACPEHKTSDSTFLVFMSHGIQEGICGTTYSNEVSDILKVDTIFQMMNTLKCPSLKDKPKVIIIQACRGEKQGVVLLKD
T1 sequence (P29452 315-402 limits assumed): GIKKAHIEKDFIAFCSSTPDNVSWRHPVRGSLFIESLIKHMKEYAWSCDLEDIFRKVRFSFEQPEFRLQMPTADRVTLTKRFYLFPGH
Description: Dissociation constant Ki and irreversible rate constant k3 for irreversible inhibitors, ICE. The source says: (§1) For the irreversible inhibition of a ICE/ced-3 Family Protease enzyme with a competitive irreversible inhibitor; using the model represented by the following formulas: […]
(§2) The product formation at time t may be expressed as:
(§3) [formula] where E, I, EI and E-I denote the active enzyme, inhibitor, non-covalent enzyme-inhibitor complex and covalent enzyme-inhibitor adduct, respectively. The Ki value is the overall dissociation constant of the reversible binding steps, and k3 is the irreversible rate constant. The [S] and Ks values are the substate concentration and dissociation constant of the substrate bound to the enzyme, respectively. [E]^T is the total enzyme concentration.
(§4) The above equations were used to determine the Ki and k3 values of a given inhibitor bound to a ICE/ced-3 family protease. Thus, a continuous assay was run for sixty minutes at various concentrations of the inhibitor and the substrate. The assay was formulated essentially the same as described above for generating the data in Table 1, except that the reaction was initiated by adding the enzyme to the substrate-inhibitor mixture. The Ki and k3 values were obtained by simulating the product AMC formation as a function of time according to Equation 1.
(§5) The reference compound for this assay was Cbz-ValAlaAsp-CH2F and the values are denoted in Table 2 as “Reference”. The Ki values in Table 2 are in micromolar (μM). The k3/Ki values are in moles^−1 seconds^−1 (M^−1s^−1).

The next test has as its target T2, CPP32 (Homo sapiens, UniProt P42574).
T2 sequence (P42574 29-175 limits assumed): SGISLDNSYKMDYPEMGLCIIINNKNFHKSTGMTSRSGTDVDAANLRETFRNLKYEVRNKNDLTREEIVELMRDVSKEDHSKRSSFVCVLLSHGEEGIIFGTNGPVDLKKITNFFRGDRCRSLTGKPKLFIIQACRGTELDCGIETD
T2 sequence (P42574 176-277 limits assumed): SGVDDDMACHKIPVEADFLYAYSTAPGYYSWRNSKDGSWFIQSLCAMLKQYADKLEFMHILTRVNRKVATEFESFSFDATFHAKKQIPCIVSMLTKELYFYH
Briefly: Dissociation constant Ki and irreversible rate constant k3 for irreversible inhibitors, CPP32.
Source text: as §1, §2, §3, §4, §5

Another test addresses MCH-5 (Homo sapiens, UniProt Q14790). Description: Dissociation constant Ki and irreversible rate constant k3 for irreversible inhibitors, Mch5.
Source text: as §1, §2, §3, §4, §5

A further test addresses T3, MCH-2 (Homo sapiens, UniProt P55212).
T3 sequence (P55212 24-179 limits assumed): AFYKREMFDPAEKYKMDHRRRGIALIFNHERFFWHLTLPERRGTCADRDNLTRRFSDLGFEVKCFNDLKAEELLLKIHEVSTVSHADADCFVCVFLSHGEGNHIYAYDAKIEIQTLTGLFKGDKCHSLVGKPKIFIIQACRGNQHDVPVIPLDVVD
T3 sequence (P55212 194-293 limits assumed): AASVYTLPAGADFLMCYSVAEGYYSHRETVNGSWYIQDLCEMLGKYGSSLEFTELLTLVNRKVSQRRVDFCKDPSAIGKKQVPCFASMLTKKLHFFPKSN
Briefly: Dissociation constant Ki and irreversible rate constant k3 for irreversible inhibitors, Mch2.
Source text: as §1, §2, §3, §4, §5

MCH-5, sequence (Q14790 217-374 limits assumed, species assumed): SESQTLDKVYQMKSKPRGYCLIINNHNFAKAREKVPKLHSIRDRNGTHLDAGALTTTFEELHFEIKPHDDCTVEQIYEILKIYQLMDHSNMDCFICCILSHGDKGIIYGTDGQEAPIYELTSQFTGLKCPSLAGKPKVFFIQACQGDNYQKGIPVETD
MCH-5, sequence (Q14790 385-479 limits assumed, species assumed): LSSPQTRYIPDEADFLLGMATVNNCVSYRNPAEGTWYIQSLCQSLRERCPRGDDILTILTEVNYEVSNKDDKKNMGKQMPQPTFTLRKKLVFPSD

`CC(C)C[C@H](NC(=O)COc1c(C(=O)O)ccc2ccccc12)C(=O)N[C@@H](CC(=O)O)C(=O)COC(=O)c1c(Cl)cccc1Cl` [Example 165, (3S)-3-[N-((2′-Carboxy-1′-Naphthyloxy)Acetyl)Leucinyl]-Amino-5-(2′,6′-Dichlorobenzoyloxy)-4-Oxopentanoic Acid]: at mICE, the Ki turned out to be 396 nM and the “mICE k3/Ki” value is recorded as 25,500 M^−1s^−1. Moreover, at CPP32, the “CPP32 k3/Ki” value is listed as 335,000 M^−1s^−1 and the Ki came to 20 nM. Besides, at MCH-5, the Ki turned out to be 89 nM and the “MCH-5 k3/Ki” value was 13,100 M^−1s^−1. Besides, at MCH-2, the Ki was 8 nM and the “MCH-2 k3/Ki” value was 116,000 M^−1s^−1.

As for `CC(C)[C@H](NC(=O)COc1cccc2ccccc12)C(=O)NC(CC(=O)O)C(=O)CF` (mixture of isomers) [Example 53, (3RS)-3-[N-((1-Naphthyloxy)Acetyl)Valinyl]Amino-5-Fluoro-4-Oxopentanoic Acid], on mICE, the Ki was 53 nM and the “mICE k3/Ki” value is given as 129,000 M^−1s^−1. At CPP32, the “CPP32 k3/Ki” value was 207,000 M^−1s^−1 and the Ki turned out to be 79 nM. Further, at MCH-5, the Ki is 40 nM and the “MCH-5 k3/Ki” value is 71,700 M^−1s^−1. On MCH-2, the Ki stood at 38 nM and the “MCH-2 k3/Ki” value is given as 36,800 M^−1s^−1.

Turning to `CC(C)[C@H](NC(=O)CCOc1cccc2ccccc12)C(=O)NC(CC(=O)O)C(=O)CF` (mixture of isomers) [Example 55], at mICE, the Ki is 246 nM and the “mICE k3/Ki” value was 33,200 M^−1s^−1. At CPP32, the “CPP32 k3/Ki” value is 41,300 M^−1s^−1 and the Ki came out at 186 nM. For the same compound, on MCH-5, the Ki was 56 nM and the “MCH-5 k3/Ki” value is 20,400 M^−1s^−1. Also, at MCH-2, the Ki was 39 nM and the “MCH-2 k3/Ki” value is 59,400 M^−1s^−1.

Consider `CC(C)[C@H](NC(=O)COc1ccccc1-c1ccccc1)C(=O)N[C@@H](CC(=O)O)C(=O)COC(=O)c1c(Cl)cccc1Cl` [Example 150], for which, at mICE, the Ki is 263 nM and the “mICE k3/Ki” value is 43,700 M^−1s^−1. For the same compound, on CPP32, the “CPP32 k3/Ki” value is 698,000 M^−1s^−1 and the Ki was found to be 16 nM. Moreover, on MCH-5, the Ki was determined as 127 nM and the “MCH-5 k3/Ki” value was 9,340 M^−1s^−1. Moreover, on MCH-2, the Ki is 9 nM and the “MCH-2 k3/Ki” value is on record as 400,000 M^−1s^−1.

As to `CC(C)C[C@H](NC(=O)COc1ccccc1-c1ccccc1)C(=O)N[C@@H](CC(=O)O)C(=O)COC(=O)c1c(Cl)cccc1Cl` [Example 162], at mICE, the Ki was 319 nM and the “mICE k3/Ki” value was 22,200 M^−1s^−1. Further, on CPP32, the “CPP32 k3/Ki” value is given as 246,000 M^−1s^−1 and the Ki was found to be 44 nM. In addition, at MCH-5, the Ki was found to be 128 nM and the “MCH-5 k3/Ki” value is 5,290 M^−1s^−1. Moreover, at MCH-2, the Ki is 29 nM and the “MCH-2 k3/Ki” value is given as 104,000 M^−1s^−1.

Take `CC(C)C[C@H](NC(=O)COc1ccccc1-c1ccccc1)C(=O)N[C@@H](CC(=O)O)C(=O)COP(=O)(c1ccccc1)c1ccccc1` [Example 161]: on mICE, the Ki amounted to 98 nM and the “mICE k3/Ki” value is recorded as 86,400 M^−1s^−1. On CPP32, the “CPP32 k3/Ki” value is reported as 319,000 M^−1s^−1 and the Ki came out at 19 nM. Besides, at MCH-5, the Ki is 105 nM and the “MCH-5 k3/Ki” value is given as 15,200 M^−1s^−1. At MCH-2, the Ki came to 30 nM and the “MCH-2 k3/Ki” value was 149,000 M^−1s^−1.

Turning to `CC(C)[C@H](NC(=O)CCOc1cccc2ccccc12)C(=O)N[C@@H](CC(=O)O)C(=O)COc1cc(C(F)(F)F)n(-c2ccccc2)n1` [Example 159], at mICE, the Ki worked out at 1370 nM and the “mICE k3/Ki” value is given as 4,580 M^−1s^−1. Besides, on CPP32, the “CPP32 k3/Ki” value was 11,700 M^−1s^−1 and the Ki stood at 1180 nM. For the same compound, at MCH-5, the Ki turned out to be 10700 nM and the “MCH-5 k3/Ki” value turned out to be 86 M⁻¹ s⁻¹. For the same compound, at MCH-2, the Ki turned out to be 113 nM and the “MCH-2 k3/Ki” value is given as 15,000 M^−1s^−1.

For `CC(C)[C@H](NC(=O)COc1cccc2ccccc12)C(=O)N[C@@H](CC(=O)O)C(=O)COc1cccc(F)c1F` [Example 68], at mICE, the Ki stood at 355 nM and the “mICE k3/Ki” value is 14,800 M^−1s^−1. Moreover, at CPP32, the “CPP32 k3/Ki” value is 28,800 M^−1s^−1 and the Ki turned out to be 110 nM. Further, at MCH-5, the Ki worked out at 821 nM and the “MCH-5 k3/Ki” value was 200 M⁻¹ s⁻¹. Besides, on MCH-2, the Ki came to 383 nM and the “MCH-2 k3/Ki” value is recorded as 1,610 M^−1s^−1.

In the case of `CC(C)[C@H](NC(=O)COc1cccc2ccccc12)C(=O)N[C@@H](CC(=O)O)C(=O)COc1ccc(F)cc1` [Example 67], at mICE, the Ki amounted to 218 nM and the “mICE k3/Ki” value is 9,120 M^−1s^−1. In addition, on CPP32, the “CPP32 k3/Ki” value is given as 8,560 M^−1s^−1 and the Ki came to 33 nM. Further, on MCH-5, the Ki worked out at 255 nM and the “MCH-5 k3/Ki” value is 700 M⁻¹ s⁻¹. Also, at MCH-2, the Ki is 203 nM and the “MCH-2 k3/Ki” value turned out to be 0 M⁻¹ s⁻¹.

As to `CC(C)[C@H](NC(=O)COc1ccc2ccccc2c1)C(=O)N[C@@H](CC(=O)O)C(=O)COc1c(F)cc(F)cc1F` [Example 156], at mICE, the Ki is 438 nM and the “mICE k3/Ki” value is listed as 20,200 M^−1s^−1. Also, on CPP32, the “CPP32 k3/Ki” value was 49,700 M^−1s^−1 and the Ki was 148 nM. In addition, on MCH-5, the Ki was determined as 293 nM and the “MCH-5 k3/Ki” value is reported as 3,990 M^−1s^−1. At MCH-2, the Ki is 52 nM and the “MCH-2 k3/Ki” value is reported as 14,900 M^−1s^−1.

With `CC(C)[C@H](NC(=O)COc1ccc2ccccc2c1)C(=O)N[C@@H](CC(=O)O)C(=O)COc1c(F)c(F)cc(F)c1F` [Example 157], at mICE, the Ki is 225 nM and the “mICE k3/Ki” value is 39,300 M^−1s^−1. Further, on CPP32, the “CPP32 k3/Ki” value is on record as 53,300 M^−1s^−1 and the Ki came to 257 nM. Moreover, on MCH-5, the Ki stood at 72 nM and the “MCH-5 k3/Ki” value is 11,600 M^−1s^−1. Further, on MCH-2, the Ki came to 22 nM and the “MCH-2 k3/Ki” value is reported as 72,000 M^−1s^−1.

As to `CC(C)C(NC(=O)COc1ccccc1-c1ccccc1)C(=O)NC(CC(=O)O)C(=O)CF` (stereo not shown) [Example 56], on mICE, the Ki was found to be 324 nM and the “mICE k3/Ki” value is reported as 15,400 M^−1s^−1. In addition, at CPP32, the “CPP32 k3/Ki” value is recorded as 105,000 M^−1s^−1 and the Ki stood at 138 nM. On MCH-5, the Ki amounted to 85 nM and the “MCH-5 k3/Ki” value was 12,800 M^−1s^−1. In addition, on MCH-2, the Ki was 53 nM and the “MCH-2 k3/Ki” value is reported as 50,000 M^−1s^−1.

Consider `O=C(O)CC(NC(=O)[C@@H]1CCCCN1C(=O)COc1cccc2ccccc12)C(=O)CF` (stereo partly shown) [Example 59], for which, on mICE, the Ki came out at 184 nM and the “mICE k3/Ki” value is 46,300 M^−1s^−1. Besides, at CPP32, the “CPP32 k3/Ki” value was 14,400 M^−1s^−1 and the Ki came out at 942 nM. Moreover, on MCH-5, the Ki was found to be 90 nM and the “MCH-5 k3/Ki” value is 17,600 M^−1s^−1. On MCH-2, the Ki is 71 nM and the “MCH-2 k3/Ki” value is listed as 10,100 M^−1s^−1.

For the compound `CC(C)[C@H](NC(=O)COc1ccccc1-c1ccccc1)C(=O)N[C@@H](CC(=O)O)C(=O)COc1c(F)cc(F)cc1F` [Example 151], on mICE, the Ki worked out at 349 nM and the “mICE k3/Ki” value is 29,600 M^−1s^−1. In addition, on CPP32, the “CPP32 k3/Ki” value is reported as 257,000 M^−1s^−1 and the Ki came out at 32 nM. Moreover, at MCH-5, the Ki was determined as 270 nM and the “MCH-5 k3/Ki” value is reported as 5,900 M^−1s^−1. For the same compound, on MCH-2, the Ki turned out to be 23 nM and the “MCH-2 k3/Ki” value is on record as 88,100 M^−1s^−1.
